Results: patent US6534447B1, “Herbicidal pyridine compounds” (BASF Aktiengesellschaft, priority 1999, dated 2003)

Key:
Format in all cases: in vivo
[1] = test system: Abutilon theophrasti (ABUTH, velvetleaf); experiment: Pre-emergence herbicidal evaluation; conditions: 3 weeks after treatment
In short: (§1)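 Read-out: visual rating of each pot on a set scale from 3 weeks post-treatment. Pots of soil-mixed seed were sprayed right after planting with compound in aqueous acetone, about 0.025 to 0.4 kg per hectare equivalent; greenhouse-grown, watered conventionally.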

[2] = test system: Alopecurus myosuroides (ALOMY, black grass); experiment: Pre-emergence herbicidal evaluation; conditions: 3 weeks after treatment
In short: as §1

[3] = test system: Echinochloa grus galli (ECHCG, barnyard grass); experiment: Pre-emergence herbicidal evaluation; conditions: 3 weeks after treatment
In short: as §1

[4] = test system: Galium aparine (GALAP, cleaver); experiment: Pre-emergence herbicidal evaluation; conditions: 3 weeks after treatment
In short: as §1

[5] = test system: Ipomoea hederacea (IPOHE, morning glory); experiment: Pre-emergence herbicidal evaluation; conditions: 3 weeks after treatment
In short: as §1

[6] = test system: Matricaria inodora (MATIN, mayweed); experiment: Pre-emergence herbicidal evaluation; conditions: 3 weeks after treatment
In short: as §1

[7] = test system: Setaria viridis (SETVI, green foxtail); experiment: Pre-emergence herbicidal evaluation; conditions: 3 weeks after treatment
In short: as §1

[8] = test system: Stellaria media (STEME, chickweed); experiment: Pre-emergence herbicidal evaluation; conditions: 3 weeks after treatment
In short: as §1

[9] = test system: Glycine max (GLXMA, soyabeans); experiment: Pre-emergence herbicidal evaluation (crop); conditions: 3 weeks after treatment
In short: as §1

[10] = test system: Triticum aestivum (TRZAW, winter wheat); experiment: Pre-emergence herbicidal evaluation (crop); conditions: 3 weeks after treatment
In short: as §1

Zea mays (ZEAMX, maize) = experiment: Pre-emergence herbicidal evaluation (crop); conditions: 3 weeks after treatment
In short: as §1

[11] = test system: Abutilon theophrasti (ABUTH, velvetleaf); experiment: Post-emergence herbicidal evaluation; conditions: 3 weeks after treatment
In short: (§2)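 Spray of water-diluted acetone solution, ~0.025–0.4 kg/ha equivalent per pot; greenhouse bench, standard care; rating from 3 wk post-treatment, 0 = growth as untreated control, 9 = death.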

[12] = test system: Alopecurus myosuroides (ALOMY, black grass); experiment: Post-emergence herbicidal evaluation; conditions: 3 weeks after treatment
In short: as §2

[13] = test system: Dolium multiflorum (LOLMU, ryegrass); experiment: Post-emergence herbicidal evaluation; conditions: rate 0.100 kg/ha, 3 weeks after treatment
In short: as §2

[14] = test system: Echinochloa grus galli (ECHCG, barnyard grass); experiment: Post-emergence herbicidal evaluation; conditions: 3 weeks after treatment
In short: as §2

[15] = test system: Galium aparine (GALAP, cleaver); experiment: Post-emergence herbicidal evaluation; conditions: 3 weeks after treatment
In short: as §2

[16] = test system: Ipomoea hederacea (IPOHE, morning glory); experiment: Post-emergence herbicidal evaluation; conditions: 3 weeks after treatment
In short: as §2

[17] = test system: Matricaria inodora (MATIN, mayweed); experiment: Post-emergence herbicidal evaluation; conditions: 3 weeks after treatment
In short: as §2

[18] = test system: Setaria viridis (SETVI, green foxtail); experiment: Post-emergence herbicidal evaluation; conditions: 3 weeks after treatment
In short: as §2

[19] = test system: Stellaria media (STEME, chickweed); experiment: Post-emergence herbicidal evaluation; conditions: 3 weeks after treatment
In short: as §2

eight weed species = experiment: Pre-emergence herbicidal evaluation, overall weed control; conditions: crop selective dose of 0.1 kg/ha
Description: The pre-emergence herbicidal activity of the compounds of the present invention is exemplified by the following test in which the seeds of a variety of monocotyledonous and dicotyledonous plants are seperately mixed with potting soil and planted on top of approximately one inch of soil in separate post. After planting, the pots are sprayed with the selected aqueous acetone solution. containing test compound in sufficient quantity to provide the equivalent of about 0.025 to 0.4 kg per hectare of test compound per pot. The treated pots are then placed on greenhouse benches, watered and cared for in accordance with conventional greenhouse procedures. From 3 weeks after treatment, the tests are terminated and each pot is examined and rated according to the rating system set forth below.
Thus, there is evidence for the good potential of the compounds of the invention for excellent cross spectrum control of both grasses and broadleaf weeds in key crops.

weeds = experiment: Post-emergence herbicidal evaluation, overall weed control; conditions: down to the lowest dose of 0.025 kg/ha
Method: These acetone solutions are diluted with water and the resulting formulations applied at dosage levels equivalent of about 0.025 to 0.4 kg per hectare of test compound per pot. After spraying the plants are placed on greenhouse benches and are cared for in the usual manner, commensurate with conventional greenhouse practices. From 3 weeks after treatment, the seedling plants are examined and rated according to the rating system provided above. A rating 0 indicates growth as untreated control, a rating 9 indicates death.

Compound: Cc1cc(OCCCSC(F)(F)F)nc(Oc2ccnc(C(F)(F)F)c2)c1 [Example 53]
- ABUTH rating ([1]; rate 0.025 kg/ha): 9 (9 - Complete kill)
- ABUTH rating ([1]; rate 0.100 kg/ha): 9 (9 - Complete kill)
- ABUTH rating ([1]; rate 0.400 kg/ha): 9 (9 - Complete kill)
- ALOMY rating ([2]; rate 0.025 kg/ha): 8 (8 - Approaching complete kill)
- ALOMY rating ([2]; rate 0.100 kg/ha): 8 (8 - Approaching complete kill)
- ALOMY rating ([2]; rate 0.400 kg/ha): 8 (8 - Approaching complete kill)
- ECHCG rating ([3]; rate 0.025 kg/ha): 7 (7 - Good herbicidal effect)
- ECHCG rating ([3]; rate 0.100 kg/ha): 8 (8 - Approaching complete kill)
- ECHCG rating ([3]; rate 0.400 kg/ha): 9 (9 - Complete kill)
- GALAP rating ([4]; rate 0.025 kg/ha): 4 (4 - Injury)
- GALAP rating ([4]; rate 0.100 kg/ha): 8 (8 - Approaching complete kill)
- GALAP rating ([4]; rate 0.400 kg/ha): 8 (8 - Approaching complete kill)
- IPOHE rating ([5]; rate 0.025 kg/ha): 8 (8 - Approaching complete kill)
- IPOHE rating ([5]; rate 0.100 kg/ha): 8 (8 - Approaching complete kill)
- IPOHE rating ([5]; rate 0.400 kg/ha): 9 (9 - Complete kill)
- MATIN rating ([6]; rate 0.025 kg/ha): 8 (8 - Approaching complete kill)
- MATIN rating ([6]; rate 0.100 kg/ha): 8 (8 - Approaching complete kill)
- MATIN rating ([6]; rate 0.400 kg/ha): 9 (9 - Complete kill)
- SETVI rating ([7]; rate 0.025 kg/ha): 8 (8 - Approaching complete kill)
- SETVI rating ([7]; rate 0.100 kg/ha): 8 (8 - Approaching complete kill)
- SETVI rating ([7]; rate 0.400 kg/ha): 8 (8 - Approaching complete kill)
- STEME rating ([8]; rate 0.025 kg/ha): 9 (9 - Complete kill)
- STEME rating ([8]; rate 0.100 kg/ha): 9 (9 - Complete kill)
- STEME rating ([8]; rate 0.400 kg/ha): 9 (9 - Complete kill)
- GLXMA rating ([9]; rate 0.025 kg/ha): 4 (4 - Injury)
- GLXMA rating ([9]; rate 0.100 kg/ha): 4 (4 - Injury)
- GLXMA rating ([9]; rate 0.400 kg/ha): 6 (6 - Herbicidal effect)
- TRZAW rating ([10]; rate 0.025 kg/ha): 1 (1 - Trace effect)
- TRZAW rating ([10]; rate 0.100 kg/ha): 2 (2 - Slight effect)
- TRZAW rating ([10]; rate 0.400 kg/ha): 4 (4 - Injury)
- ZEAMX rating (Zea mays (ZEAMX, maize); rate 0.025 kg/ha): 2 (2 - Slight effect)
- ZEAMX rating (Zea mays (ZEAMX, maize); rate 0.100 kg/ha): 4 (4 - Injury)
- ZEAMX rating (Zea mays (ZEAMX, maize); rate 0.400 kg/ha): 4 (4 - Injury)
- ABUTH rating ([11]; rate 0.025 kg/ha): 8 (8 - Approaching complete kill)
- ABUTH rating ([11]; rate 0.100 kg/ha): 9 (9 - Complete kill)
- ABUTH rating ([11]; rate 0.400 kg/ha): 9 (9 - Complete kill)
- ALOMY rating ([12]; rate 0.025 kg/ha): 6 (6 - Herbicidal effect)
- ALOMY rating ([12]; rate 0.100 kg/ha): 8 (8 - Approaching complete kill)
- ALOMY rating ([12]; rate 0.400 kg/ha): 9 (9 - Complete kill)
- LOLMU rating [13]: 8 (8 - Approaching complete kill)
- ECHCG rating ([14]; rate 0.025 kg/ha): 9 (9 - Complete kill)
- ECHCG rating ([14]; rate 0.100 kg/ha): 9 (9 - Complete kill)
- ECHCG rating ([14]; rate 0.400 kg/ha): 9 (9 - Complete kill)
- GALAP rating ([15]; rate 0.025 kg/ha): 6 (6 - Herbicidal effect)
- GALAP rating ([15]; rate 0.100 kg/ha): 9 (9 - Complete kill)
- GALAP rating ([15]; rate 0.400 kg/ha): 9 (9 - Complete kill)
- IPOHE rating ([16]; rate 0.025 kg/ha): 9 (9 - Complete kill)
- IPOHE rating ([16]; rate 0.100 kg/ha): 9 (9 - Complete kill)
- IPOHE rating ([16]; rate 0.400 kg/ha): 9 (9 - Complete kill)
- MATIN rating ([17]; rate 0.025 kg/ha): 6 (6 - Herbicidal effect)
- MATIN rating ([17]; rate 0.100 kg/ha): 8 (8 - Approaching complete kill)
- MATIN rating ([17]; rate 0.400 kg/ha): 8 (8 - Approaching complete kill)
- SETVI rating ([18]; rate 0.025 kg/ha): 9 (9 - Complete kill)
- SETVI rating ([18]; rate 0.100 kg/ha): 9 (9 - Complete kill)
- SETVI rating ([18]; rate 0.400 kg/ha): 9 (9 - Complete kill)
- STEME rating ([19]; rate 0.025 kg/ha): 8 (8 - Approaching complete kill)
- STEME rating ([19]; rate 0.100 kg/ha): 9 (9 - Complete kill)
- STEME rating ([19]; rate 0.400 kg/ha): 9 (9 - Complete kill)
- weed control (in words) (eight weed species): complete control
- activity against weeds (in words) (weeds): high levels of activity
